Tests used:
Human JNK1α1 = Human JNK1α1 (Homo sapiens, UniProt P45983); test: JNK assay in vitro (phosphorylation of GST-ATF2 with [γ-33P] ATP), JNK1; format: biochemical; conditions: Km concentrations of ATP and substrate
Protocol: (§1) JNK activity was measured by phosphorylation of GST-ATF2 (19-96) with [γ-^33P] ATP. […] Human JNK2α2 assay contains 1 nM enzyme, 1 μM ATF2, 8 μM ATP with 1 uCi [γ-^33P] ATP. Human JNK1α1 assay contains 2 nM enzyme, 1 μM ATF2, 6 μM ATP with 1 μCi [γ-^33P] ATP. Human JNK3 Upstate Biotech #14-501M) assay contains 2 nM enzyme, 1 μM ATF2, 4 μM ATP with 1 μCi [γ-^33P] ATP. The enzyme assay was carried out in the presence or absence of several compound concentrations. JNK and compound were pre-incubated for 10 min., followed by initiation of the enzymatic reaction by adding ATP and the substrate. The reaction mixture was incubated at 30° C. for 30 min. At the end of incubation, the reaction was terminated by transferring 25 μl of the reaction mixture to 150 μl of 10% glutathione Sepharose® slurry (Amersham # 27-4574-01) containing 135 mM EDTA. The reaction product was captured on the affinity resin, and washed on a filtration plate (Millipore, MABVNOB50) with phosphate buffered saline for six times to remove free radionucleotide. The incorporation of ^33P into ATF2 was quantified on a microplate scintillation counter (Packard Topcount). Compound inhibition potency on JNK was measured by IC50 value generated from ten concentration inhibition curves fitted into the 3-parameter model: % inhibition=Maximum/(1+(IC50/[Inhibitor])^slope). Data were analyzed on Microsoft Excel for parameter estimation.

Human JNK2α2 = Human JNK2α2 (Homo sapiens, UniProt P45984); test: JNK assay in vitro (phosphorylation of GST-ATF2 with [γ-33P] ATP), JNK2; format: biochemical; conditions: Km concentrations of ATP and substrate
Protocol: as §1

[1] = system: TNFα-induced IL-6 production; test: Rat in vivo TNFα-induced IL-6 production assay; conditions: oral gavage 30 min prior to TNF-α challenge, plasma IL-6 90 min after challenge, female Wistar-Han rats
Protocol: Female Wistar-Han rats procured from Charles River Laboratories were allowed to acclimate for one week prior to use and achieve an approximate body weight of 101-130 g. Rats were administered test compound (N=8 per compound) via oral gavage 30 min prior to an intraperitoneal challenge of 0.5 μg recombinant rat TNF-α (Biosource). Blood was collected via cardiocentesis 90 min after TNF-α challenge. Plasma was prepared using lithium heparin separation tubes (BD microtainer) and frozen at −80° C. until analyzed. IL-6 levels were determined using a rat specific IL-6 ELISA kit (Biosource). The percent inhibition and ED50 values (calculated as the dose of compound at which […] is 50% of the control value) were determined.

Sequence of Human JNK1α1 (P45983 1-384 isoform P45983-2): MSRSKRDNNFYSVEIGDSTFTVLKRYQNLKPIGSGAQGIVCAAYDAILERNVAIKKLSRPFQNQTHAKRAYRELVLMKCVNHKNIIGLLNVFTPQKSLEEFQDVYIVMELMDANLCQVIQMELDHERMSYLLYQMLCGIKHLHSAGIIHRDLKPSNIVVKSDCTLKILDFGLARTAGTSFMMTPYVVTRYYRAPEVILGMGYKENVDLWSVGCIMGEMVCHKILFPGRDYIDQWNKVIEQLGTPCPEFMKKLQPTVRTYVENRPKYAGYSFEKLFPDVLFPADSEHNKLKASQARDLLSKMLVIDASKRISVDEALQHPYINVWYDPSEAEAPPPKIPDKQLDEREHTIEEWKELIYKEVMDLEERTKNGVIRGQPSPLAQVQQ
Sequence of Human JNK2α2 (P45984 whole entry): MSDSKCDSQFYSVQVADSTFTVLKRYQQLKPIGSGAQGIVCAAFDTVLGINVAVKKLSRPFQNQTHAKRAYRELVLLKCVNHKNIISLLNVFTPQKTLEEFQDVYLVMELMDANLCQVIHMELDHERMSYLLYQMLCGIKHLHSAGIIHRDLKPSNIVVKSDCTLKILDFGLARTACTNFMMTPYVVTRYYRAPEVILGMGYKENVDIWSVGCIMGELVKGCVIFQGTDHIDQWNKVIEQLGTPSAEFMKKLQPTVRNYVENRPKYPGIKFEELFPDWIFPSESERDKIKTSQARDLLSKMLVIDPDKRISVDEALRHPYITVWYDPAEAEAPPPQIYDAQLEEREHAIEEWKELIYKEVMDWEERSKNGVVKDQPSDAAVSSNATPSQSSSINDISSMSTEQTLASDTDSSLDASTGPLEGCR

| Compound | IC50 (Human JNK1α1) | IC50 (Human JNK2α2) | melting point | IL-6 Inhibition ([1]; dose 10 mg/Kg) | IL-6 Inhibition ([1]; dose 30 mg/Kg) |
| --- | --- | --- | --- | --- | --- |
| CC(C)(N)C(=O)OC1CCN(C(=O)[C@H]2CC[C@H](Nc3nccc(-n4ccc5c(OCCCS(C)(=O)=O)cccc54)n3)CC2)CC1 [Compound I-2, 2-Amino-2-methyl-propionic acid 1-(4-{4-[4-(3-methanesulfonyl-propoxy)-indol-1-yl]-pyrimidin-2-ylamino}-cyclohexanecarbonyl)-piperidin-4-yl ester] | 6.8 nM | 34.7 nM | 219 to 220 °C |  |  |
| CN1CCC[C@H]1C(=O)OC1CCN(C(=O)[C@H]2CC[C@H](Nc3nccc(-n4ccc5c(OCCCS(C)(=O)=O)cccc54)n3)CC2)CC1 [Compound I-27, (S)-1-Methyl-pyrrolidine-2-carboxylic acid 1-(4-{4-[4-(3-methanesulfonyl-propoxy)-indol-1-yl]-pyrimidin-2-ylamino}-cyclohexanecarbonyl)-piperidin-4-yl ester] | 17.6 nM | 57.2 nM | 127 to 128 °C | 35.8% | 50.7% |
| CN[C@@H](C)C(=O)OC1CCN(C(=O)[C@H]2CC[C@H](Nc3nccc(-n4ccc5c(OCCCS(C)(=O)=O)cccc54)n3)CC2)CC1 [Compound I-9, (S)-2-methylamino-propionic acid 1-(4-{4-[4-(3-methanesulfonyl-propoxy)-indol-1-yl]-pyrimidin-2-ylamino}-cyclohexanecarbonyl)-piperidin-4-yl ester] | 15.3 nM | 50.9 nM | 182 to 183 °C | 28.1% | 49.1% |
| CN(C)CC(=O)OC1CCN(C(=O)[C@H]2CC[C@H](Nc3nccc(-n4ccc5c(OCCCS(C)(=O)=O)cccc54)n3)CC2)CC1 [Compound I-8, Dimethylamino-acid acid 1-(4-{4-[4-(3-methanesulfonyl-propoxy)-indol-1-yl]-pyrimidin-2-ylamino}-cyclohexanecarbonyl)-piperidin-4-yl ester] | 23.8 nM | 67.6 nM | 177 to 178 °C | 28.9% | 40.2% |
| CC[C@H](C)[C@H](N)C(=O)OC1CCN(C(=O)[C@H]2CC[C@H](Nc3nccc(-n4ccc5c(OCCCS(C)(=O)=O)cccc54)n3)CC2)CC1 [Compound I-4, (2S,3S)-2-Amino-3-methyl-pentanoic acid 1-(4-{4-[4-(3-methanesulfonyl-propoxy)-indol-1-yl]-pyrimidin-2-ylamino}-cyclohexanecarbonyl)-piperidin-4-yl ester] | 11.6 nM | 51.9 nM | 137 to 138 °C |  |  |
| CS(=O)(=O)CCCOc1cccc2c1ccn2-c1ccnc(N[C@H]2CC[C@H](C(=O)N3CCC(OP(=O)(O)O)CC3)CC2)n1 [Compound I-13] | 10.8 nM | 56.8 nM | 201.3 to 208.8 °C |  |  |
| COP(=O)(OC)OC1CCN(C(=O)[C@H]2CC[C@H](Nc3nccc(-n4ccc5c(OCCCS(C)(=O)=O)cccc54)n3)CC2)CC1 [Compound I-12, Phosphoric acid 1-(4-{4-[4-(3-methanesulfonyl-propoxy)-indol-1-yl]-pyrimidin-2-ylamino}-cyclohexanecarbonyl)-piperidin-4-yl ester dimethyl ester] | 48.1 nM | 162 nM | 135 to 136 °C |  |  |
| CC[C@@H](C)[C@@H](N)C(=O)OC1CCN(C(=O)[C@H]2CC[C@H](Nc3nccc(-n4ccc5c(OCCCS(C)(=O)=O)cccc54)n3)CC2)CC1 [Compound I-11, (2R,3R)-2-Amino-3-methyl-pentanoic acid 1-(4-{4-[4-(3-methanesulfonyl-propoxy)-indol-1-yl]-pyrimidin-2-ylamino}-cyclohexanecarbonyl)-piperidin-4-yl ester] | 34.7 nM | 115 nM | 147 to 148 °C |  |  |
| CN1CCC[C@@H]1C(=O)OC1CCN(C(=O)[C@H]2CC[C@H](Nc3nccc(-n4ccc5c(OCCCS(C)(=O)=O)cccc54)n3)CC2)CC1 [Compound I-7, (R)-1-Methyl-pyrrolidine-2-carboxylic acid 1-(4-{4-[4-(3-methanesulfonyl-propoxy)-indol-1-yl]-pyrimidin-2-ylamino}-cyclohexanecarbonyl)-piperidin-4-yl ester] | 15 nM | 55 nM | 127 to 128 °C |  |  |
| CC[C@H](C)[C@@H](N)C(=O)OC1CCN(C(=O)[C@H]2CC[C@H](Nc3nccc(-n4ccc5c(OCCCS(C)(=O)=O)cccc54)n3)CC2)CC1 [Compound I-10, (2R,3S)-2-Amino-3-methyl-pentanoic acid 1-(4-{4-[4-(3-methanesulfonyl-propoxy)-indol-1-yl]-pyrimidin-2-ylamino}-cyclohexanecarbonyl)-piperidin-4-yl ester] |  |  | 150 to 200 °C |  |  |
| CS(=O)(=O)CCCOc1cccc2c1ccn2-c1ccnc(N[C@H]2CC[C@H](C(=O)N3CCC(OC(=O)CCC(=O)O)CC3)CC2)n1 [Compound I-14] | 27.9 nM | 67.9 nM | 214.2 to 217.7 °C |  |  |
| CN[C@H](C(=O)OC1CCN(C(=O)[C@H]2CC[C@H](Nc3nccc(-n4ccc5c(OCCCS(C)(=O)=O)cccc54)n3)CC2)CC1)C(C)C (stereo in doubt) [Compound I-15, (R)-3-Methyl-2-methylamino-butyric acid 1-(4-{4-[4-(3-methanesulfonyl-propoxy)-indol-1-yl]-pyrimidin-2-ylamino}-cyclohexanecarbonyl)-piperidin-4-yl ester] | 10 nM | 40.5 nM | 105 to 107 °C |  |  |
| CS(=O)(=O)CCCOc1cccc2c1ccn2-c1ccnc(N[C@H]2CC[C@H](C(=O)N3CCC(OC(=O)[C@@H]4CCCN4)CC3)CC2)n1 [Compound I-5, (S)-Pyrrolidine-2-carboxylic acid 1-(4-{4-[4-(3-methanesulfonyl-propoxy)-indol-1-yl]-pyrimidin-2-ylamino}-cyclohexanecarbonyl)-piperidin-4-yl ester] | 7.4 nM | 27.4 nM | 147 to 148 °C |  |  |
| C[C@H](N)C(=O)OC1CCN(C(=O)[C@H]2CC[C@H](Nc3nccc(-n4ccc5c(OCCCS(C)(=O)=O)cccc54)n3)CC2)CC1 [Compound I-1] | 9.4 nM | 40.8 nM | 202.2 to 203.2 °C |  |  |
| CC(C)[C@H](N)C(=O)OC1CCN(C(=O)[C@H]2CC[C@H](Nc3nccc(-n4ccc5c(OCCCS(C)(=O)=O)cccc54)n3)CC2)CC1 [Compound I-6, (S)-2-Amino-3-methyl-butyric acid 1-(4-{4-[4-(3-methanesulfonyl-propoxy)-indol-1-yl]-pyrimidin-2-ylamino}-cyclohexanecarbonyl)-piperidin-4-yl ester] | 10.5 nM | 40.2 nM | 163 to 164 °C |  |  |
